Results as given in patent US8420655B2, “Benzimidazole inhibitors of leukotriene production” (Boehringer Ingelheim International GmbH, priority 2009, dated 2013).

Target: T1, recombinant human FLAP protein (Homo sapiens, UniProt P20292)
T1 construct: made in house; host or cells: Sf9 insect cells (membrane fraction, 100,000 x g pellet)
T1 sequence (P20292 1-161): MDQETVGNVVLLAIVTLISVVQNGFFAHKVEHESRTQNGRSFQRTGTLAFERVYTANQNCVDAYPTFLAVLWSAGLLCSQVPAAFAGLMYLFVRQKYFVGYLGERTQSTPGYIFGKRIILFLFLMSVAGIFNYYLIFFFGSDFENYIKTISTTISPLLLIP
Test: FLAP binding assay, displacement of iodinated (125I) FLAP inhibitor, Scintillation Proximity Assay format
Conditions: [125I]L-691,831 probe, membrane protein from sf9 cells; read-out: hFLAP binding IC50
Procedure: Compounds are assessed for the ability to bind to FLAP in a binding assay that measures compound-specific displacement of an iodinated (^125I) FLAP inhibitor via a Scintillation Proximity Assay format (adapted from S. Charleson et al., Mol. Pharmacol., 1992, 41, 873-879).
Cell pellets produced from sf9 insect cells expressing recombinant human FLAP protein are resuspended in buffer A [15 mM Tris-HCl (pH 7.5), 2 mM MgCl2, 0.3 mM EDTA, 1 mM PMSF]. The cells are lysed with a Dounce homogenizer and the material is centrifuged at 10,000×g for 10 minutes. The supernatant is then collected and centrifuged at 100,000×g for 60 minutes. To prepare membrane protein for an assay, an aliquot of the 100,000×g pellet is resuspended in 1 ml of buffer A, Dounce homogenized, and finally subjected to polytron mixing (30 seconds). Membrane protein (25 μl, 5 μg) is mixed with WGA SPA beads (Amersham) and stirred for 1 h. To an assay plate (Perkin Elmer FlexiPlate) is added 25 μl of test compound prepared in Binding buffer [100 mM Tris (pH 7.5), 140 mM NaCl, 5% glycerol, 2 mM EDTA, 0.5 mM TCEP, 0.05% Tween 20], 25 μl of [^125I]L-691,831 (an iodinated analog of MK-591, Charleson et al. Mol. Pharmacol., 41, 873-879, 1992) and finally 50 μl of the bead/protein mixture. (final concentrations: beads, 200 μg/well; protein, 5 μg/well; [^125I] probe, 0 08 nM/well (17 nCi/well). The plates are shaken for 2 h before reading on a Microbeta plate reader. Non-specific binding is determined by the addition of 10 μM cold L-691,831 compound.

SMILES | IC50
CC(C)(Oc1ccc(-c2nc3cc(-c4cnc(N)nc4)ccc3n2C(C)(C)C)c(-n2cncn2)c1)C(=O)O [2-{4-[5-(2-Amino-pyrimidin-5-yl)-1-tert-butyl-1H-benzoimidazol-2-yl]-3-[1,2,4]triazol-1-yl-phenoxy}-2-methyl-propionic acid] | 5.5 nM
COc1ccc(-n2ccc(C)n2)c(-c2nc3cc(-c4cnc(N)nc4)ccc3n2C(C)(C)C)c1 [5-{1-tert-Butyl-2-[5-methoxy-2-(3-methyl-pyrazol-1-yl)-phenyl]-1H-benzimidazol-5-yl}-pyrimidin-2-ylamine] | 8.8 nM
Cc1ncn(-c2ccc(Cl)cc2-c2nc3cc(-c4cnc(N)nc4)ccc3n2C(C)(C)C)n1 [5-{1-tert-Butyl-2-[5-chloro-2-(3-methyl-1,2,4-triazol-1-yl)-phenyl]-1H-benzimidazol-5-yl}-pyrimidin-2-ylamine] | 1.4 nM
CCN(CC)C(=O)Oc1ccc(-n2cncn2)c(-c2nc3cc(-c4cnc(N)nc4)ccc3n2C(C)(C)C)c1 [Diethyl-carbamic acid 3-[5-(2-amino-pyrimidin-5-yl)-1-tert-butyl-1H-benzimidazol-2-yl]-4-1,2,4-triazol-1-yl-phenyl ester] | 8.8 nM
COc1ccc(-n2cccn2)c(-c2nc3cc(-c4cnc5[nH]ccc5c4)ccc3n2C(C)(C)C)c1 [1-tert-Butyl-2-(5-methoxy-2-pyrazol-1-yl-phenyl)-5-(1H-pyrrolo[2,3-b]pyridin-5-yl)-1H-benzimidazole] | 1.1 nM
COc1ccc(-n2cnc(C)n2)c(-c2nc3cc(-c4cnc(N)nc4)ccc3n2C(C)(C)C)c1 [5-{1-tert-Butyl-2-[5-methoxy-2-(3-methyl-1,2,4-triazol-1-yl)-phenyl]-1H-benzimidazol-5-yl}-pyrimidin-2-ylamine] | 2.2 nM

More lines, now with the values ahead:

IC50 | SMILES
4.6 nM | CC(C)(C)n1c(-c2cc(-c3nn[nH]n3)ccc2-n2cncn2)nc2cc(-c3cnc(N)nc3)ccc21 [5-{1-tert-Butyl-2-[5-(2H-tetrazol-5-yl)-2-[1,2,4]triazol-1-yl-phenyl]-1H-benzoimidazol-5-yl}-pyrimidin-2-ylamine]
3 nM | Cc1ncn(-c2ccc(C#N)cc2-c2nc3cc(-c4cnc(N)nc4)ccc3n2C(C)(C)C)n1 [3-[5-(2-Amino-pyrimidin-5-yl)-1-tert-butyl-1H-benzimidazol-2-yl]-4-(3-methyl-1,2,4-triazol-1-yl)-benzonitrile]
1.6 nM | Cc1ncn(-c2ccccc2-c2nc3cc(-c4cnc(N)nc4)ccc3n2C(C)(C)C)n1 [5-{1-tert-Butyl-2-[2-(3-methyl-1,2,4-triazol-1-yl)-phenyl]-1H-benzimidazol-5-yl}-pyrimidin-2-ylamine]
24 nM | COc1ccc(-c2nc(C)no2)c(-c2nc3cc(-c4cnc(N)nc4)ccc3n2C(C)(C)C)c1 [5-{1-tert-Butyl-2-[5-methoxy-2-(3-methyl-1,2,4-oxadiazol-5-yl)-phenyl]-1H-benzimidazol-5-yl}-pyrimidin-2-ylamine]
7.2 nM | COC(=O)C(C)(C)Oc1ccc(-c2nc3cc(-c4cnc(N)nc4)ccc3n2C(C)(C)C)c(-n2cncn2)c1 [2-{4-[5-(2-Amino-pyrimidin-5-yl)-1-tert-butyl-1H-benzoimidazol-2-yl]-3-[1,2,4]triazol-1-yl-phenoxy}-2-methyl-propionic acid methyl ester]
3 nM | CC(C)(C)n1c(-c2cc(Cl)ccc2-n2cncn2)nc2cc(-c3cnc(N)nc3)ccc21 [5-[1-tert-Butyl-2-(5-chloro-2-1,2,4-triazol-1-yl-phenyl)-1H-benzimidazol-5-yl]-pyrimidin-2-ylamine]
10.6 nM | CC(C)(C)n1c(-c2ccc(OC3CCOC3)cc2-n2cncn2)nc2cc(-c3cnc(N)nc3)ccc21 (centres unmarked) [5-{1-tert-Butyl-2-[4-(tetrahydro-furan-3-yloxy)-2-1,2,4-triazol-1-yl-phenyl]-1H-benzimidazol-5-yl}-pyrimidin-2-ylamine]
1.3 nM | Cc1ccnn1-c1ccc(C#N)cc1-c1nc2cc(-c3cnc(N)nc3)ccc2n1C(C)(C)C [3-[5-(2-Amino-pyrimidin-5-yl)-1-tert-butyl-1H-benzoimidazol-2-yl]-4-(5-methyl-pyrazol-1-yl)-benzonitrile]
